Reference: article PMC9853864, “Nonspecific Binding of Adenosine Tripolyphosphate and Tripolyphosphate Modulates the Phase Behavior of Lysozyme” (Journal of the American Chemical Society, 2023)
pKd: −log10 of the molar value.

Target: T1, hen egg-white lysozyme (HEWL); chicken egg lysozyme (Gallus gallus, UniProt P00698)
T1 construct: gene LYZ
Experiment: 1H NMR titration, Trp imino CSP (W62, W111, W123), […] fit
Type: binding

T1 sequence (P00698 19-147): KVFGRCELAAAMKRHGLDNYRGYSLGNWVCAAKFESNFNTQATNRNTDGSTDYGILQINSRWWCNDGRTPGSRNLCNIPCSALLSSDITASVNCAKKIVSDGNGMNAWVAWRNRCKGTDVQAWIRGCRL

`O=P(O)(O)OP(=O)(O)OP(=O)(O)O` [TPP] was tested, and the pKd was roughly 3.00.
